Source: PubChem BioAssay (NCI)
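The compound was tested at five concentrations on cells cultured in 96-well plates, with a 48-hour exposure period. Here, GI50 denotes the concentration required for 50% inhibition of growth. Definition used: TGI = concentration required for complete inhibition of growth.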

Columns and labels:
Experiment in all cases: NCI-60 cell line screen, 48 h
786-0 renal = tested on: 786-0 renal
A498 renal = tested on: A498 renal
A549 NSCLC = tested on: A549 NSCLC
ACHN renal = tested on: ACHN renal
BT-549 breast = tested on: BT-549 breast
CAKI-1 renal = tested on: CAKI-1 renal
CCRF-CEM leukemia = tested on: CCRF-CEM leukemia
COLO 205 colon = tested on: COLO 205 colon
DU-145 prostate = tested on: DU-145 prostate
EKVX NSCLC = tested on: EKVX NSCLC
HCC-2998 colon = tested on: HCC-2998 colon
HCT-116 colon = tested on: HCT-116 colon
HCT-15 colon = tested on: HCT-15 colon
HL-60(TB) leukemia = tested on: HL-60(TB) leukemia
HOP-62 NSCLC = tested on: HOP-62 NSCLC
HOP-92 NSCLC = tested on: HOP-92 NSCLC
HS 578T breast = tested on: HS 578T breast
HT29 colon = tested on: HT29 colon
IGROV1 ovarian = tested on: IGROV1 ovarian
K-562 leukemia = tested on: K-562 leukemia
KM12 colon = tested on: KM12 colon
LOX IMVI melanoma = tested on: LOX IMVI melanoma
M14 melanoma = tested on: M14 melanoma
MALME-3M melanoma = tested on: MALME-3M melanoma
MCF7 breast = tested on: MCF7 breast
MDA-MB-231 breast = tested on: MDA-MB-231 breast
MDA-MB-435 = tested on: MDA-MB-435
MDA-MB-468 breast = tested on: MDA-MB-468 breast
MOLT-4 leukemia = tested on: MOLT-4 leukemia
NCI-H226 lung = tested on: NCI-H226 lung
NCI-H23 lung = tested on: NCI-H23 lung
NCI-H460 lung = tested on: NCI-H460 lung
NCI-H522 lung = tested on: NCI-H522 lung
NCI/ADR-RES ovarian = tested on: NCI/ADR-RES ovarian
OVCAR-3 ovarian = tested on: OVCAR-3 ovarian
OVCAR-4 ovarian = tested on: OVCAR-4 ovarian
OVCAR-5 ovarian = tested on: OVCAR-5 ovarian
OVCAR-8 ovarian = tested on: OVCAR-8 ovarian
PC-3 prostate = tested on: PC-3 prostate
RPMI-8226 leukemia = tested on: RPMI-8226 leukemia
RXF 393 renal = tested on: RXF 393 renal
SF-268 CNS = tested on: SF-268 CNS
SF-295 CNS = tested on: SF-295 CNS
SF-539 CNS = tested on: SF-539 CNS
SK-MEL-2 melanoma = tested on: SK-MEL-2 melanoma
SK-MEL-28 melanoma = tested on: SK-MEL-28 melanoma
SK-MEL-5 melanoma = tested on: SK-MEL-5 melanoma
SK-OV-3 ovarian = tested on: SK-OV-3 ovarian
SN12C renal = tested on: SN12C renal
SNB-19 CNS = tested on: SNB-19 CNS
SNB-75 CNS = tested on: SNB-75 CNS
SR leukemia = tested on: SR leukemia
SW-620 colon = tested on: SW-620 colon
T-47D breast = tested on: T-47D breast
TK-10 renal = tested on: TK-10 renal
U251 CNS = tested on: U251 CNS
UACC-257 melanoma = tested on: UACC-257 melanoma
UACC-62 melanoma = tested on: UACC-62 melanoma
UO-31 renal = tested on: UO-31 renal

CCOC(=O)c1sc(N/N=C(\C)c2ccc3c(c2)Nc2ccccc2S3)nc1C
GI50 (786-0 renal): 7.21 µM
TGI (786-0 renal): 23.1 µM
GI50 (A498 renal): 16.1 µM
TGI (A498 renal): 45.5 µM
GI50 (A549 NSCLC): 6.4 µM
TGI (A549 NSCLC): 38.8 µM
GI50 (ACHN renal): 6.1 µM
TGI (ACHN renal): 19.1 µM
GI50 (BT-549 breast): 18.4 µM
TGI (BT-549 breast): 49.3 µM
GI50 (CAKI-1 renal): 9.09 µM
TGI (CAKI-1 renal): 22.8 µM
GI50 (CCRF-CEM leukemia): 6.52 µM
TGI (CCRF-CEM leukemia): 94.4 µM
GI50 (COLO 205 colon): 9.42 µM
TGI (COLO 205 colon): 32.2 µM
GI50 (DU-145 prostate): 8.82 µM
TGI (DU-145 prostate): 29.1 µM
GI50 (EKVX NSCLC): 5.82 µM
TGI (EKVX NSCLC): 22.8 µM
GI50 (HCC-2998 colon): 3.71 µM
TGI (HCC-2998 colon): 12.8 µM
GI50 (HCT-116 colon): 6.64 µM
TGI (HCT-116 colon): > 100 µM
GI50 (HCT-15 colon): 3.4 µM
TGI (HCT-15 colon): 14.8 µM
GI50 (HL-60(TB) leukemia): 4.89 µM
TGI (HL-60(TB) leukemia): > 100 µM
GI50 (HOP-62 NSCLC): 13.3 µM
TGI (HOP-62 NSCLC): 29.6 µM
GI50 (HOP-92 NSCLC): 4.9 µM
TGI (HOP-92 NSCLC): 19.9 µM
GI50 (HS 578T breast): 10.5 µM
TGI (HS 578T breast): 50.6 µM
GI50 (HT29 colon): 11.7 µM
TGI (HT29 colon): > 100 µM
GI50 (IGROV1 ovarian): 11.3 µM
TGI (IGROV1 ovarian): 26 µM
GI50 (K-562 leukemia): 4.03 µM
TGI (K-562 leukemia): > 100 µM
GI50 (KM12 colon): 3.45 µM
TGI (KM12 colon): 19.4 µM
GI50 (LOX IMVI melanoma): 3.14 µM
TGI (LOX IMVI melanoma): 12.4 µM
GI50 (M14 melanoma): 8.42 µM
TGI (M14 melanoma): 61.8 µM
GI50 (MALME-3M melanoma): 13.7 µM
TGI (MALME-3M melanoma): 33.6 µM
GI50 (MCF7 breast): 3.36 µM
TGI (MCF7 breast): 17.5 µM
GI50 (MDA-MB-231 breast): 5.73 µM
TGI (MDA-MB-231 breast): 19.1 µM
GI50 (MDA-MB-435): 10.7 µM
TGI (MDA-MB-435): 33.6 µM
GI50 (MDA-MB-468 breast): 3.45 µM
TGI (MDA-MB-468 breast): 15.1 µM
GI50 (MOLT-4 leukemia): 6.33 µM
TGI (MOLT-4 leukemia): > 100 µM
GI50 (NCI-H226 lung): 10.9 µM
TGI (NCI-H226 lung): 29.3 µM
GI50 (NCI-H23 lung): 8.65 µM
TGI (NCI-H23 lung): 21.3 µM
GI50 (NCI-H460 lung): 5 µM
TGI (NCI-H460 lung): 24.2 µM
GI50 (NCI-H522 lung): 10.7 µM
TGI (NCI-H522 lung): 34.8 µM
GI50 (NCI/ADR-RES ovarian): 8.87 µM
TGI (NCI/ADR-RES ovarian): 22.2 µM
GI50 (OVCAR-3 ovarian): 12.8 µM
TGI (OVCAR-3 ovarian): 27.3 µM
GI50 (OVCAR-4 ovarian): 10.7 µM
TGI (OVCAR-4 ovarian): 53.7 µM
GI50 (OVCAR-5 ovarian): 11.6 µM
TGI (OVCAR-5 ovarian): 67.6 µM
GI50 (OVCAR-8 ovarian): 12 µM
TGI (OVCAR-8 ovarian): 39.6 µM
GI50 (PC-3 prostate): 6.04 µM
TGI (PC-3 prostate): 24 µM
GI50 (RPMI-8226 leukemia): 3.96 µM
TGI (RPMI-8226 leukemia): > 100 µM
GI50 (RXF 393 renal): 3.2 µM
TGI (RXF 393 renal): 13.3 µM
GI50 (SF-268 CNS): 13.1 µM
TGI (SF-268 CNS): 40.4 µM
GI50 (SF-295 CNS): 3.38 µM
TGI (SF-295 CNS): 14.1 µM
GI50 (SF-539 CNS): 10.1 µM
TGI (SF-539 CNS): 21.7 µM
GI50 (SK-MEL-2 melanoma): 15.4 µM
TGI (SK-MEL-2 melanoma): 44.8 µM
GI50 (SK-MEL-28 melanoma): 11.1 µM
TGI (SK-MEL-28 melanoma): 26.1 µM
GI50 (SK-MEL-5 melanoma): 7.62 µM
TGI (SK-MEL-5 melanoma): 27.2 µM
GI50 (SK-OV-3 ovarian): 16.9 µM
TGI (SK-OV-3 ovarian): 39.7 µM
GI50 (SN12C renal): 11.5 µM
TGI (SN12C renal): 28.3 µM
GI50 (SNB-19 CNS): 12.8 µM
TGI (SNB-19 CNS): 25.6 µM
GI50 (SNB-75 CNS): 8.97 µM
TGI (SNB-75 CNS): 31.2 µM
GI50 (SR leukemia): > 100 µM
TGI (SR leukemia): > 100 µM
GI50 (SW-620 colon): 11.9 µM
TGI (SW-620 colon): 45.2 µM
GI50 (T-47D breast): 3.94 µM
TGI (T-47D breast): 49.2 µM
GI50 (TK-10 renal): 16.6 µM
TGI (TK-10 renal): 33.5 µM
GI50 (U251 CNS): 14.1 µM
TGI (U251 CNS): 54 µM
GI50 (UACC-257 melanoma): 12.4 µM
TGI (UACC-257 melanoma): 40.4 µM
GI50 (UACC-62 melanoma): 6.06 µM
TGI (UACC-62 melanoma): 20.6 µM
GI50 (UO-31 renal): 6.67 µM
TGI (UO-31 renal): 20.7 µM
